Experimental data taken from patent publication US12606863B2, “Bioluminescent detection of DNA synthesis” (Promega Corporation, priority 2021, dated 2026).

Columns and labels:
Type in all cases: cell-based
A549 cells [1] = assay: Simultaneous incorporation of modified nucleosides, all probes added together, NanoBiT detection, Example 8; conditions: all probes added together at 5 or 12.5 uM each; A549 5,000 and 1,000 cells per well; compared to control cells
Protocol: (§1) Cells without modified nucleosides were used as a control (brown bars). Incorporation of modified nucleosides into DNA was determined by removing the media, fixing and permeabilizing the cells, denaturing DNA, and incubating with HaloTag-LgBiT (HT-LgBiT) and HaloTag-SmBiT (HT-SmBiT) diluted in PBS with 0.01% BSA at 50 nM final concentration. After 2 hours incubation, the reagents were removed, the samples were washed with PBS, NanoLuc substrate was added, and luminescence was measured (FIG. 4).
The experiment was conducted with A549 cells plated at 5,000 and 1,000 cells per well as described in Example 7.

A549 cells [2] = assay: Incorporation of modified nucleosides into newly synthesized DNA, NanoBiT detection, Example 7; conditions: A549 5000 cells/well, 20 uM or 50 uM, 4.5 hours
Protocol: as §1, with “A549 cells plated at 5000 cells/well were cultured in medium containing PBI-9391, PBI-9392, or PBI-9393 at 20 uM (light blue bars) or 50 uM (dark blue bars) final concentration for 4.5 hours. Cells” for “Cells”

A549 cells [3] = assay: Incorporation of modified nucleosides into newly synthesized DNA, detection with HT-LgBiT/HT-SmBiT (NANOBiT), Example 1; conditions: A549 500 cells/well, 10 uM, 4 hours, fixed, permeabilized, DNA denatured; HT-LgBiT and HT-SmBiT 50 nM
Protocol: A549 cells plated at 500 cells/well were cultured in medium containing PBI-7931 (FIG. 2A, top) or PBI-7960 (FIG. 2A, bottom) at 10 uM final concentration for 4 hours. Cells without modified nucleosides were used as control. After culturing, the media was removed, cells fixed, permeabilized, and DNA denatured using acid treatment. […] Following a one-hour incubation, NANOLUC substrate was added, and luminescence was measured (FIG. 2B).

A549 cells [4] = assay: Incorporation of modified chloroalkane nucleoside measured without DNA denaturation, Example 9; conditions: A549 5000 cells/well, 10 uM, 0.5 hours or 4 hours; HT-LgBiT and HT-SmBiT 25 nM
Protocol: A549 cells plated at 5000 cells/well were cultured in medium containing PBI-7960 at 10 uM final concentration for 0.5 hours (light blue bar) or 4 hours (dark blue bar). Cells without modified nucleosides were used as control (brown bar). Incorporation of modified nucleosides into DNA was determined by removing the media, fixing and permeabilizing the cells and incubating with HT-LgBiT and HT-SmBiT diluted in PBS with 0.01% BSA at 25 nM final concentration. After 1 hour incubation, the NanoLuc substrate was added, and luminescence was measured.

A549 cells [5] = assay: Inhibition of DNA replication measured by modified nucleoside incorporation and NANOBiT luminescence, Example 2; conditions: A549 2,000 cells/well, increasing doxorubicin for 2 hours, then PBI-7931 or -7960 at 10 uM for 4 hours
Protocol: A549 cells plated at 2,000 cells/well were treated with increasing concentrations of the DNA replication inhibitor doxorubicin for 2 hours in a tissue culture incubator. […] No compound was added to control cells. To measure the amount of newly synthesized DNA, HT-LgBiT and HT-SmBiT were added to the cells at 50 nM final concentration.

SMILES	Light output after simultaneous incorporation into newly synthesized DNA (FIG. 5) (A549 cells [1])	Incorporation into newly synthesized DNA detected via NanoBiT (FIG. 4) (A549 cells [2])	Luminescence following incorporation of haloalkyl-modified nucleosides into newly-synthesized DNA (FIG. 2B) (A549 cells [3])	Incorporation detected without DNA denaturation (FIG. 6) (A549 cells [4])	Inhibition of DNA synthesis, detected by reduction in luminescence (FIG. 3) (A549 cells [5])
Nc1nc(=O)n([C@H]2C[C@H](O)[C@@H](CO)O2)cc1C#CCOC(=O)NCCOCCOCCCCCCCl [PBI-9391, 3-(4-amino-1-((2R,4S,5R)-4-hydroxy-5-(hydroxymethyl)tetrahydrofuran-2-yl)-2-oxo-1,2-dihydropyrimidin-5-yl)prop-2-yn-1-yl (2-(2-((6-chlorohexyl)oxy)ethoxy)ethyl)carbamate]	increase in light output	incorporated into newly synthesized DNA	–	–	–
O=C(NCCOCCOCCCCCCCl)OCC#Cc1cn([C@H]2CC(O)[C@@H](CO)O2)c(=O)[nH]c1=O (some centres unmarked) [PBI-7931]	–	–	Luminescence detected	–	–
Nc1ncnc2c1c(C#CCOC(=O)NCCOCCOCCCCCCCl)cn2[C@H]1C[C@H](O)[C@@H](CO)O1 [PBI-9393, 3-(4-amino-7-((2R,4S,5R)-4-hydroxy-5-(hydroxymethyl)tetrahydrofuran-2-yl)-7H-pyrrolo[2,3-d]pyrimidin-5-yl)prop-2-yn-1-yl(2-(2-((6-chlorohexyl)oxy)ethoxy)ethyl)carbamate]	increase in light output	incorporated into newly synthesized DNA	–	–	–
O=C(NCC#Cc1cn([C@H]2C[C@H](O)[C@@H](CO)O2)c(=O)[nH]c1=O)c1ccc(C(=O)NCCOCCOCCCCCCCl)cc1 [PBI-7960, N1-(2-(2-((6-chlorohexyl)oxy)ethoxy)ethyl)-N4-(3-(1-((2R,4S,5R)-4-hydroxy-5-(hydroxymethyl)tetrahydrofuran-2-yl)-2,4-dioxo-1,2,3,4-tetrahydropyrimidin-5-yl)prop-2-yn-1-yl)terephthalamide]	increase in light output	–	Luminescence detected	detected without DNA denaturation	–
Nc1nc(=O)c2c(C#CCOC(=O)NCCOCCOCCCCCCCl)cn([C@H]3C[C@H](O)[C@@H](CO)O3)c2[nH]1 [PBI-9392, 3-(2-amino-7-((2R,4S,5R)-4-hydroxy-5-(hydroxymethyl)tetrahydrofuran-2-yl)-4-oxo-4,7-dihydro-1H-pyrrolo[2,3-d]pyrimidin-5-yl)prop-2-yn-1-yl(2-(2-((6-chlorohexyl)oxy)ethoxy)ethyl)carbamate]	increase in light output	incorporated into newly synthesized DNA	–	–	–
COc1cccc2c1C(=O)c1c(O)c3c(c(O)c1C2=O)C[C@@](O)(C(=O)CO)C[C@@H]3O[C@H]1C[C@H](N)[C@H](O)[C@H](C)O1 [doxorubicin]	–	–	–	–	Inhibition of DNA synthesis
